Data reported in patent US8338422B2, “Indolin-2-ones and aza-indolin-2-ones” (Janssen Pharmaceutica NV, priority 2007, dated 2012).
“And” between values parts separate entries of the source, which are not always exact repeats. Equal values may be shown once.

Legend:
PLK4 (h) = PLK4 (h) (Homo sapiens, UniProt O00444); test: PLK-4 human kinase assay (SPA); assay type: biochemical; conditions: for IC50: read-out: PLK4 pIC50 (converted)
Protocol: (§1) The in vitro inhibition of a panel of kinases was assessed using either the scintillation proximity assay (SPA) as described by Cook, N. D. et al., Advances in Experimental Medicine and Biology (1991), 36; p. 525-528; or the Fluorescence Resonance Energy Transfer (FRET) technology as described by Rodems, S. M. et al., Assay Drug Develop. Technol. (2002), 1; p. 9-19.
(§2) In the SPA technology the activity of the kinase of interest is measured using an appropriate biotinylated substrate that is incubated with the aforementioned kinase protein in the presence of (^33P) radiolabeled ATP. (^33P) Phosporylation of the substrate is subsequently measured through binding of the phosphorylated substrate to streptavidine coated beads that are based on the scintillant poly(vinyl toluene) (PVT-Beads). The scintillation intensity is detected by imaging on Leadseeker.
(§3) All kinases are pre-diluted to a 10× working concentration prior to addition into the assay. The composition of the dilution buffer for each kinase is detailed below.
In a final reaction volume of 30 μl PLK4 (h) (19 μg/ml) is incubated with 50 mM Hepes pH 8.0, 10 mM MgCl2, 50 mM NaCl, 1 mM NaF, 1 mM DTT, 10 μM of peptide Biotin-RPRGQRDSSYYWE-OH, 1 μM ATP and 2 nM [γ-^33P-ATP] (6.0 μCi/ml). After incubation of 60 minutes at room temperature, the reaction is stopped by addition of 40 μl, of stop solution containing 8.7 mM EDTA, BSA 0.17%, 0.17% Triton X-100, 1.7 mg/ml SPA beads (GE-healthcare). The plate is centriguged and read for Scintillation imaging on Leadseeker.

AuroraB (h) = AuroraB (h) (Homo sapiens, UniProt Q96GD4); test: Aurora-B human kinase assay (SPA); assay type: biochemical; conditions: for IC50: read-out: AuroraB pIC50 (converted)
Sequence of AuroraB (h) (Q96GD4 whole entry): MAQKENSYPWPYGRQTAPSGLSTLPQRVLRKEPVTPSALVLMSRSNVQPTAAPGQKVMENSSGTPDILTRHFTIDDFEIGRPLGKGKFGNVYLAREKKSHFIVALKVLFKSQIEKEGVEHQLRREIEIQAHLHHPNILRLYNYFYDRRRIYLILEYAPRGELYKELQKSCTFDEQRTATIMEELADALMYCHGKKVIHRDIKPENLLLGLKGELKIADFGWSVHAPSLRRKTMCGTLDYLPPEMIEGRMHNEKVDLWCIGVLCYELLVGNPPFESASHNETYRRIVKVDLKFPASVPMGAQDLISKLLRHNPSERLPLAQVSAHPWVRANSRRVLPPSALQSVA
Protocol: as §1, §2, §3
In a final reaction volume of 30 μl, AuroraB (h) (0.5 μg/ml) is incubated with 60 mM Hepes pH 7.5, 3 mM MgCl2, 3 mM MnCl2, 3 μM Na3VO4, 0.05 mg/ml PEG, 2 mM DTT, 3 μM Biotin-[…]-OH, 0.5 μM ATP and 2.2 nM [γ-^33P-ATP] (6.8 μCi/ml). After incubation of 60 minutes at room temperature, the reaction is stopped by addition of 40 μL of stop solution containing 8.7 mM EDTA, BSA 0.17%, 0.17% Triton X-100, 5 mg/ml SPA beads (GE-healthcare). The plate is centriguged and read for Scintillation imaging on Leadseeker.

GSK3β (h) = GSK3β (h) (Homo sapiens, UniProt P49841); test: GSK-3β human kinase assay (SPA); assay type: biochemical; conditions: for IC50: read-out: GSK3B pIC50 (converted)
Sequence of GSK3β (h) (P49841 whole entry): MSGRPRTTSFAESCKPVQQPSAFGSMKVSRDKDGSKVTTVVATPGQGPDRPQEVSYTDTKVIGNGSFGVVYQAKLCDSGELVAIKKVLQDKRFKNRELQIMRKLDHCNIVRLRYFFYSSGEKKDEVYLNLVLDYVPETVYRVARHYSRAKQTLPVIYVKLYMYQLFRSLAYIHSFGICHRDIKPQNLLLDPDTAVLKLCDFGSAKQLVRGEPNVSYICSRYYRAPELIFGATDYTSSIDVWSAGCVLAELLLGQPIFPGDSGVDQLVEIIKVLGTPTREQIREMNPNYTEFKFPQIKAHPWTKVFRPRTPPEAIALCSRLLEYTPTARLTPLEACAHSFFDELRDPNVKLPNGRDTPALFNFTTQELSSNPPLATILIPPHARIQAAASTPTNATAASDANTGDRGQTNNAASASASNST
Protocol: as §1, §2, §3
In a final reaction volume of 30 μl, GSK3β (h) (1 μg/ml) is incubated with 25 mM Tris pH 7.4, 10 mM MgCl2, 1 mM DTT, 1 μM peptide Biotin-KRREILSRRPSYR-OH, 1 μM ATP and 2 nM [γ-^33P-ATP] (6.0 μCi/ml). After incubation of 60 minutes at room temperature, the reaction is stopped by addition of […] of stop solution containing 8.7 mM EDTA, BSA 0.17%, 0.17% Triton X-100, 6.25 mg/ml SPA beads (GE-healthcare). The plate is centriguged and read for Scintillation imaging on Leadseeker.

CDK1/CyclinB (h) = CDK1/CyclinB (h) (Homo sapiens, UniProt P06493); test: CDK1/CyclinB human kinase assay (FRET); assay type: biochemical; conditions: for IC50: read-out: CDK1 pIC50 (converted)
Sequence of CDK1/CyclinB (h) (P06493 whole entry): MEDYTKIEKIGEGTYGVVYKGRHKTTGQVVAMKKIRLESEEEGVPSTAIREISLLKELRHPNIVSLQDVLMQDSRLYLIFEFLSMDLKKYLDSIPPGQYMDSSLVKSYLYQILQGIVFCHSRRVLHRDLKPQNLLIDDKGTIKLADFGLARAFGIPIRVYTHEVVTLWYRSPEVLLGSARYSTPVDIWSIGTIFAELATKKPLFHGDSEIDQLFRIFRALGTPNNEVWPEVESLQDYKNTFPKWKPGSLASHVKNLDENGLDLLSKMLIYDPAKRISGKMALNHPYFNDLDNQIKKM
Sequence of CDK1/CyclinB (h) (P14635 whole entry partner): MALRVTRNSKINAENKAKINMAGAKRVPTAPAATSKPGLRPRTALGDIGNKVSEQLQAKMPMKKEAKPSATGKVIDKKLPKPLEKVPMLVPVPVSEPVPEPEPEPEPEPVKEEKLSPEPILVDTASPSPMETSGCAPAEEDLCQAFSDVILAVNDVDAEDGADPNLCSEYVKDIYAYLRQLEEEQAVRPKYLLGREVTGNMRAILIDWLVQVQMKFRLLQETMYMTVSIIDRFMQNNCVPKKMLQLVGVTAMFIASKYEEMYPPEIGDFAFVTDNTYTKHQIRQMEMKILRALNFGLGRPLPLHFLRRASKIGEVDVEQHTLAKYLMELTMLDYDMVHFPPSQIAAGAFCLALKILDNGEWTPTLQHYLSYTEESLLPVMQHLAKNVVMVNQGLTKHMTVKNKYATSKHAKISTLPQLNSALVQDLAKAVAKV
Protocol: as §1
In the FRET technology the activity of the kinase of interest is measured using an appropriate substrate that is labeled with two fluorophores (coumarin and fluorescein). Phosphorylation is determined using a developing reagent comprising a protease that recognizes and cleaves nonphosphorylated peptides. Cleavage will disturb the FRET between the fluorescein and coumarin on the peptide. Uncleaved, phosphorylated peptides maintain the FRET signal. A ratiometric readout of the donor emission over the acceptor emission quantitates the reaction process.
as §3
In a final reaction volume of 10 μl, CDK1/CyclinB (h) (0.2 μg/ml) is incubated with 50 mM Hepes pH 7.5, 10 mM MgCl2, 1 mM EGTA, 0.01% Brij-35, 2 μM Z'lyte Ser/Thr peptide 12 and 10 μM ATP (Invitrogen's FRET assay). After incubation of 60 minutes at room temperature, the reaction is stopped by addition of 5 μL development reagent containing protease mix. After 60 minutes room temperature the development reaction is stopped by adding 5 μl stop solution. The plate is then read in fluorescence plate reader with excitation: 390 nm and dual emission: 460 and 538 nm. Emission ratio is determined to the formula=Emission signal intensity at 460 nm/Emission signal intensity at 538 nm.

A2780 = test: Cellular proliferation assay (Alamar blue), A2780; assay type: cell-based; conditions: A2780 cells, 72 hours with compound, 10% FCS; for IC50: Homo sapiens, A2780, 72 h, read-out: pIC50 A2780 (converted)
Protocol: (§4) […] functional properties of these compounds was tested in cellular proliferation assays on a panel of different cell lines in the presence of 10% FCS serum (37° C. and 5% (v/v) CO2). In a first step these cells were seeded and incubated for 24 hours in the absence of compound. In the second step the cells were incubated for 72 hours with the compounds to be tested for 72 hours. The viable cell number was finally assessed in a standard Alamar blue cell viability assay.
(§5) The viable cell number was assessed by incubation for either 4 h (HCT-116, H1299, H460) 6 h (SKOV3, HT29, U87-MG, Colo205) or 24 h (A2780, PC3, MDA-MB-231, A549, MCF-7) with Alamar blue (Resazurin 9 μg/ml, K-Ferrocyanide 90 μM K-Ferricyanide 90 μM) and the converted fluorescent product was quantified on a fluorescent plate readed (544 nm/590 nm). Effect of the compounds is calculated as of on control cells.

H1299 = test: Cellular proliferation assay (Alamar blue), H1299; assay type: cell-based; conditions: Homo sapiens, NCI-H1299, 72 h, H1299 cells, 72 hours with compound, 10% FCS, read-out: pIC50 H1299 (converted)
Protocol: as §4, §5

U87MG = test: Cellular proliferation assay (Alamar blue), U87MG; assay type: cell-based; conditions: Homo sapiens, U-87 MG, 72 h, U87MG cells, 72 hours with compound, 10% FCS, read-out: pIC50 U87MG (converted)
Protocol: as §4, §5

PC-3 = test: Cellular proliferation assay (Alamar blue), PC-3; assay type: cell-based; conditions: Homo sapiens, PC-3, 72 h, PC-3 cells, 72 hours with compound, 10% FCS, read-out: pIC50 PC-3 (converted)
Protocol: as §4, §5

HCT-116 = test: Cellular proliferation assay (Alamar blue), HCT-116; assay type: cell-based; conditions: HCT-116 cells, 72 hours with compound, 10% FCS
Protocol: as §4, §5

Sequence of PLK4 (h) (O00444 whole entry): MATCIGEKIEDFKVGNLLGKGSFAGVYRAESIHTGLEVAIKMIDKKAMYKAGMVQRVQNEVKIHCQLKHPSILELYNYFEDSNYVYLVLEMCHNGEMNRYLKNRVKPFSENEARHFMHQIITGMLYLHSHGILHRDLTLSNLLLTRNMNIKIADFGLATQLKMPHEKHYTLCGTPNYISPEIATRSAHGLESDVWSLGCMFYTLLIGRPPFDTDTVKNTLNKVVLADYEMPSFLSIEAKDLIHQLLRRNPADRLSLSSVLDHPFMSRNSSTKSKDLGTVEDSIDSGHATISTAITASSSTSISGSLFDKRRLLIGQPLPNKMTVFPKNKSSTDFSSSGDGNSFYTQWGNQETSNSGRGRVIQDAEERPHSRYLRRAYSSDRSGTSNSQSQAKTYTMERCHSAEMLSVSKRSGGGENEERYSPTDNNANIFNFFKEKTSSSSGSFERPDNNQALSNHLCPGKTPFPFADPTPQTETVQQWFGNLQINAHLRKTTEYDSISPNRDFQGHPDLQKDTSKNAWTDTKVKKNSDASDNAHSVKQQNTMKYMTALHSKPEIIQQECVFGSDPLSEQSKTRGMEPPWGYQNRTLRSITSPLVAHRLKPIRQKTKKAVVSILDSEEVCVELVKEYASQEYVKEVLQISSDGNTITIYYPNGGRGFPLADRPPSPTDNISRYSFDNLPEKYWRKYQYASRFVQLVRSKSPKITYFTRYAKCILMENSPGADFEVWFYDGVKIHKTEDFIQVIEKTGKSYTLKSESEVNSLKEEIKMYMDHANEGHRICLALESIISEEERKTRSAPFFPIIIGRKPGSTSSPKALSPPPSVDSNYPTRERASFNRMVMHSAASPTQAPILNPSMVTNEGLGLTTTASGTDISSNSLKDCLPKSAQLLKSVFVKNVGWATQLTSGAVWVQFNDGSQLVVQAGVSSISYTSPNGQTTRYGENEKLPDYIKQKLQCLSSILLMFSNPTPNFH

SMILES | IC50 (PLK4 (h)) | IC50 (AuroraB (h)) | IC50 (GSK3β (h)) [µM] | IC50 (CDK1/CyclinB (h)) | also measured
CN1CCN(c2ccc3cc2CN(C)CCCC(=O)N(C)CCCNc2ncnc4c2/C(=C/N3)C(=O)N4)CC1 [Compound 140] | 0.525 µM | > 10 µM | 0.0513 | 1.55 µM | IC50 (A2780): 1.23 µM; IC50 (H1299): 2.63 µM; IC50 (U87MG): 0.501 µM; IC50 (PC-3): 6.17 µM
COc1ccc2cc1OCCCCC(=O)N(C)CCCNc1ncnc3c1C(=CN2)C(=O)N3 (mixture of isomers) [Compound 62] | – | – | – | – | PLK4 pIC50 (PLK4 (h)): 6.9; AuroraB pIC50 (AuroraB (h)): 7.75; GSK3B pIC50 (GSK3β (h)): 7.57; CDK1 pIC50 (CDK1/CyclinB (h)): 6.46
CN1CCC(=O)NCC#Cc2cccc3c2/C(=C/Nc2cccc(c2)S(=O)(=O)N(C)CC1=O)C(=O)N3 [Compound 21] | 1.86 µM | > 10 µM | 4.68 | > 10 µM | –
CN1CCCCC(=O)N(C)CCCN(C)c2ncnc3c2/C(=C/Nc2ccc(Cl)c(c2)C1)C(=O)N3 [Compound 91] | > 10 µM | > 10 µM | 0.977 | > 10 µM | –
CN1CCCC(=O)N(C)CCNc2ncnc3c2/C(=C/Nc2ccc(N4CCOCC4)c(c2)C1)C(=O)N3 [Compound 94] | 5.13 µM | > 10 µM | 1.05 | > 10 µM | –
CN1CCN(c2ccc3cc2CN(C)CCCCC(=O)N(C)CCNc2ncnc4c2/C(=C/N3)C(=O)N4)CC1 [Compound 92] | 1.29 µM | > 10 µM | 1.48 | > 10 µM | –
COc1ccc2cc1CN(C)CCCCC(=O)N(C)CCCN(C)c1ncnc3c1C(=CN2)C(=O)N3 (mixture of isomers) [Compound 87] | – | – | – | – | PLK4 pIC50 (PLK4 (h)): <5; AuroraB pIC50 (AuroraB (h)): <5; GSK3B pIC50 (GSK3β (h)): 6.17; CDK1 pIC50 (CDK1/CyclinB (h)): <5
COc1ccc2cc1OCC(=O)N[C@H](Cc1ccccc1)CN(C)CCNc1ncnc3c1/C(=C/N2)C(=O)N3 [Compound 191] | 1.66 µM and 2.09 µM and > 10 µM | 3.39 µM and 3.55 µM and > 10 µM | – | – | pIC50 A2780 (A2780): 5.47; IC50 (A2780): 2.45 µM; pIC50 HCT-116 (HCT-116): 5.55 and 5.77; IC50 (HCT-116; Homo sapiens, HCT-116, 72 h, read-out: pIC50 HCT-116 (converted)): 2.4 µM; IC50 (H1299): > 10 µM
CN1CCCC(=O)N(C)CCCN(C)c2ncnc3c2/C(=C/Nc2ccc(Cl)c(c2)C1)C(=O)N3 [Compound 90] | 5.5 µM | > 10 µM | 0.617 | > 10 µM | –
CN1CCNc2ncnc3c2/C(=C/Nc2ccc(Cl)c(c2)OCCCCCC1=O)C(=O)N3 [Compound 57] | 4.79 µM | 1.07 µM | 0.263 | > 10 µM | –
CN1CCNc2ncnc3c2/C(=C/Nc2ccc(N4CCOCC4)c(c2)OCCCC1=O)C(=O)N3 [Compound 8] | > 10 µM | > 10 µM | > 10 | > 10 µM | –
CN1CCNc2ncnc3c2/C(=C/Nc2ccc(Cl)c(c2)OCCCCC1=O)C(=O)N3 [Compound 56] | 3.47 µM | 0.759 µM | 0.166 | ~6.76 µM and 6.76 µM | –
COc1cc2cc(c1OC)CN(C)CCCC(=O)N(C)CCCNc1ncnc3c1/C(=C/N2)C(=O)N3 [Compound 6] | 6.17 µM | > 10 µM | > 10 | ~10 µM | –
COc1ccc2cc1OCCCCCCC(=O)N(C)CCNc1ncnc3c1C(=CN2)C(=O)N3 (mixture of isomers) [Compound 76] | – | – | – | – | PLK4 pIC50 (PLK4 (h)): 5.72; AuroraB pIC50 (AuroraB (h)): 6.28; GSK3B pIC50 (GSK3β (h)): 6.54; CDK1 pIC50 (CDK1/CyclinB (h)): <5
CN1CCCN(C)c2ncnc3c2C(=CNc2ccc(Cl)c(c2)OCCCC1=O)C(=O)N3 (mixture of isomers) [Compound 86] | – | – | – | – | PLK4 pIC50 (PLK4 (h)): 5.9; AuroraB pIC50 (AuroraB (h)): 5.47; GSK3B pIC50 (GSK3β (h)): 6.42; CDK1 pIC50 (CDK1/CyclinB (h)): <5

More lines, main results first:

IC50 (PLK4 (h)) | IC50 (AuroraB (h)) | IC50 (GSK3β (h)) [µM] | IC50 (CDK1/CyclinB (h)) | SMILES | also measured
4.37 µM | 5.13 µM | 1.05 | > 10 µM | CN1CCNc2ncnc3c2/C(=C/Nc2cccc(c2)OCCCCCCC1=O)C(=O)N3 [Compound 59] | –
3.31 µM | 9.12 µM | 0.813 | 8.91 µM | CN1CCCCC(=O)N(C)CCNc2ncnc3c2/C(=C/Nc2cccc(c2)C1)C(=O)N3 [Compound 79] | –
0.452 µM | > 10 µM | 6.38 | > 10 µM | CN1CCCCCC(=O)N(C)CCNc2ncnc3c2/C(=C/Nc2ccc(N4CCOCC4)c(c2)C1)C(=O)N3 [Compound 131] | –
3.72 µM | > 10 µM | 0.851 | 1.78 µM | CN1CCCC(=O)N(C)CCCNc2ncnc3c2/C(=C/Nc2cccc(c2)C1)C(=O)N3 [Compound 73] | –
5.62 µM | > 10 µM | > 10 | > 10 µM | CN1CCCCCCC(=O)N(C)CCCNc2ncnc3c2/C(=C/Nc2cccc(c2)C1)C(=O)N3 [Compound 74] | –
8.91 µM | > 10 µM | 1.38 | > 10 µM | CN1CCCNc2ncnc3c2/C(=C/Nc2ccc(Cl)c(c2)OCCCCCCC1=O)C(=O)N3 [Compound 65] | –
6.17 µM | > 10 µM | 1.05 | > 10 µM | CN1CCCC(=O)N(C)CCNc2ncnc3c2/C(=C/Nc2cccc(c2)C1)C(=O)N3 [Compound 82] | –
1.07 µM | > 10 µM | 2.75 | > 10 µM | CN1CCCCCC(=O)N(C)CCCNc2ncnc3c2/C(=C/Nc2cccc(c2)C1)C(=O)N3 [Compound 81] | –
